We go through seven compounds from patent US7288660B2, “Process for preparing ondansetron hydrochloride dihydrate having a defined particle size” (Taro Pharmaceutical Industries Limited, priority 2004, dated 2007).

Where a name gives a salt, the structure may show the parent alone.

The nature of series [1]: Particle size determination by laser diffraction (MALVERN Mastersizer 2000). Format: physicochemical. Conditions: for <63 μm (fraction of particles by volume smaller than specified diameter) / <150 μm (fraction of particles by volume smaller than specified diameter) / Mean particle size: hydrochloride dihydrate. The method, then: Particle Size Determination by Laser Diffraction
The particle size of the obtained ondansetron hydrochloride dihydrate particles was determined as set forth above (See Methodology and Protocols). The mean particle size and particle size distribution of the particles (fraction of particles by volume smaller than specified diameter) are presented in the following table.

For series [2] the following is noted: particles from the '578 patent process (cooling isopropanol/water solution); cited from earlier work.
Setting [3] is: Drying: 40° C., eight (8) hours, 25° C., two (2) days.
[4] abbreviates: Drying: Ambient conditions, six (6) hours.
[5] abbreviates: Drying: None (i.e., wet particles after filtration).

On to `Cc1nccn1CC1CCc2c(c3ccccc3n2C)C1=O` (single isomer, unassigned) [Example 2, ondansetron hydrochloride dihydrate], for which, in series [1] (dried particles), the “<250 μm (fraction of particles by volume smaller than specified diameter)” value turned out to be 100%, the “<63 μm (fraction of particles by volume smaller than specified diameter)” value is on record as 31%, the “<150 μm (fraction of particles by volume smaller than specified diameter)” value is on record as 90% and the Mean particle size is on record as 81 μm.

`Cc1nccn1CC1CCc2c(c3ccccc3n2C)C1=O` (stereo not shown) [ondansetron hydrochloride dihydrate]: the “Fraction of particles smaller than 250 μm” value in series [2] is on record as “less than 60%”.

For `Cc1nccn1CC1CCc2c(c3ccccc3n2C)C1=O` (single isomer, unassigned) [Example 1, ondansetron hydrochloride dihydrate], in series [1] (dried particles), the “<60 μm (fraction of particles by volume smaller than specified diameter)” value worked out at 19%, the “<250 μm (fraction of particles by volume smaller than specified diameter)” value was 100%, the “<150 μm (fraction of particles by volume smaller than specified diameter)” value is given as 90% and the Mean particle size is given as 96 μm.

For the compound `Cc1nccn1CC1CCc2c(c3ccccc3n2C)C1=O` (single isomer, unassigned) [Example 3, ondansetron hydrochloride dihydrate], in series [1] (dried particles), the “<250 μm (fraction of particles by volume smaller than specified diameter)” value was found to be 100%, the “<63 μm (fraction of particles by volume smaller than specified diameter)” value stood at 34%, the “<150 μm (fraction of particles by volume smaller than specified diameter)” value is 85% and the Mean particle size was determined as 81 μm.

Regarding `Cc1nccn1CC1CCc2c(c3ccccc3n2C)C1=O` (single isomer, unassigned) [Example 5, ondansetron hydrochloride dihydrate], in series [1] (dried particles), the “<250 μm (fraction of particles by volume smaller than specified diameter)” value is listed as 100%, the “<63 μm (fraction of particles by volume smaller than specified diameter)” value is reported as 26%, the “<150 μm (fraction of particles by volume smaller than specified diameter)” value worked out at 85% and the Mean particle size is reported as 89 μm.

For `Cc1nccn1CC1CCc2c(c3ccccc3n2C)C1=O` (single isomer, unassigned) [Example 4, ondansetron hydrochloride dihydrate], in series [1] (dried particles), the “<250 μm (fraction of particles by volume smaller than specified diameter)” value is 100%, the “<63 μm (fraction of particles by volume smaller than specified diameter)” value is reported as 12%, the “<150 μm (fraction of particles by volume smaller than specified diameter)” value is on record as 85% and the Mean particle size is reported as 81 μm.

`Cc1nccn1CC1CCc2c(c3ccccc3n2C)C1=O` (stereo not shown) [Example 6, ondansetron hydrochloride dihydrate]: the “<60 μm” value in series [1] (setting [3]) turned out to be 15%; in series [1] (Drying: 40° C., four (4) hours), 28%; in series [1] (Drying: 40° C., two (2) hours), 35%; in series [1] (setting [4]), 28%; in series [1] (setting [5]), 31%. In addition, in series [1] (setting [3]), the “<350 μm” value is listed as 100%. Moreover, the “<280 μm” value in series [1] (Drying: 40° C., four (4) hours) turned out to be 100%; in series [1] (setting [4]) it was 100%; in series [1] (setting [5]) it was 100%. Further, in series [1] (Drying: 40° C., two (2) hours), the “<290 μm” value was 100%.
